In the supplement of paper PMC10307832:

Tests used:
Experiment in all cases: relative viability (nuclei count vs DMSO), 5 days (fraction); higher = more cells survive
Ponatinib + OSI-027 = compound: Cc1ccc(C(=O)Nc2ccc(CN3CCN(C)CC3)c(C(F)(F)F)c2)cc1C#Cc1cnc2cccnn12 [Ponatinib] + COc1cccc2cc(-c3nc([C@H]4CC[C@H](C(=O)O)CC4)n4ncnc(N)c34)[nH]c12 [OSI-027] (partner 0.5 µM)
Procedure, shortened: (§1)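 Lung cancer cell lines were seeded in 1536-well plates and dosed by pin tool the next day, with either a single drug or a fixed anchor-drug dose combined with five library-drug doses (not always all listed) spaced in √10 steps. Five days later, one step fixed the cells and stained their nuclei (final 0.05% Triton X-100, 1% formaldehyde, 1 ug/ml Hoechst), and nuclei were counted on 4× images. Relative viability is the nuclei count in treated wells divided by the count in vehicle wells, and each value is the median of duplicate plates.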

Pazopanib + Dasatinib = compound: Cc1ccc(Nc2nccc(N(C)c3ccc4c(C)n(C)nc4c3)n2)cc1S(N)(=O)=O [Pazopanib] + Cc1nc(Nc2ncc(C(=O)Nc3c(C)cccc3Cl)s2)cc(N2CCN(CCO)CC2)n1 [Dasatinib] (partner 0.075 µM)
Procedure, shortened: as §1

Ponatinib + Pictilisib = compound: Cc1ccc(C(=O)Nc2ccc(CN3CCN(C)CC3)c(C(F)(F)F)c2)cc1C#Cc1cnc2cccnn12 [Ponatinib] + CS(=O)(=O)N1CCN(Cc2cc3nc(-c4cccc5[nH]ncc45)nc(N4CCOCC4)c3s2)CC1 [Pictilisib] (partner 1 µM)
Procedure, shortened: as §1

Pazopanib + Lapatinib = compound: Cc1ccc(Nc2nccc(N(C)c3ccc4c(C)n(C)nc4c3)n2)cc1S(N)(=O)=O [Pazopanib] + CS(=O)(=O)CCNCc1ccc(-c2ccc3ncnc(Nc4ccc(OCc5cccc(F)c5)c(Cl)c4)c3c2)o1 [Lapatinib] (partner 2 µM)
Procedure, shortened: as §1

| Cell Line | relative viability (Ponatinib + OSI-027; first compound 0.002 µM) | relative viability (Ponatinib + OSI-027; first compound 0.006325 µM) | relative viability (Ponatinib + OSI-027; first compound 0.06325 µM) | relative viability (Ponatinib + OSI-027; first compound 0.2 µM) | relative viability (Pazopanib + Dasatinib; first compound 0.01 µM) | relative viability (Pazopanib + Dasatinib; first compound 0.03162 µM) | relative viability (Pazopanib + Dasatinib; first compound 0.1 µM) | relative viability (Pazopanib + Dasatinib; first compound 1 µM) | relative viability (Ponatinib + Pictilisib; first compound 0.002 µM) | relative viability (Ponatinib + Pictilisib; first compound 0.006325 µM) | relative viability (Ponatinib + Pictilisib; first compound 0.06325 µM) | relative viability (Ponatinib + Pictilisib; first compound 0.2 µM) | relative viability (Pazopanib + Lapatinib; first compound 0.01 µM) | relative viability (Pazopanib + Lapatinib; first compound 0.03162 µM) | relative viability (Pazopanib + Lapatinib; first compound 0.1 µM) | relative viability (Pazopanib + Lapatinib; first compound 0.3162 µM) | relative viability (Pazopanib + Lapatinib; first compound 1 µM) | relative viability (Pazopanib + Dasatinib; first compound 0.3162 µM) |
| --- | --- | --- | --- | --- | --- | --- | --- | --- | --- | --- | --- | --- | --- | --- | --- | --- | --- | --- |
| NCI-H358 | 0.813 | 0.816 | 0.998 | 0.672 | 0.157 | 0.152 | 0.158 | 0.258 | 0.318 | 0.429 | 0.369 | 0.331 | 0.482 | 0.53 | 0.356 | 0.442 | 0.489 |  |
| NCI-H1299 |  |  |  |  |  |  |  |  | 0.894 | 0.874 | 0.988 | 0.658 | 0.928 | 0.962 | 0.969 | 1.02 | 0.894 |  |
| EBC-1 |  |  |  |  |  |  |  |  | 0.372 | 0.428 | 0.327 | 0.283 | 0.184 | 0.251 | 0.232 | 0.247 | 0.232 |  |
| NCI-H441 | 0.47 | 0.606 | 0.482 | 0.388 | 0.451 | 0.612 | 0.643 | 0.658 | 0.608 | 0.48 | 0.49 | 0.313 |  |  |  |  |  | 0.565 |
| NCI-H1648 | 0.249 | 0.299 | 0.261 | 0.282 |  |  |  |  |  |  |  |  |  |  |  |  |  |  |
| ChaGo-K-1 | 0.465 | 0.594 | 0.571 | 0.493 | 0.554 | 0.622 | 0.591 | 0.7 | 0.59 | 0.917 | 0.879 | 0.644 |  |  |  |  |  | 0.515 |
| HCC-44 | 0.482 | 0.413 | 0.402 | 0.408 |  |  |  |  | 0.69 | 0.65 | 0.73 | 0.628 | 0.999 | 1.01 | 0.962 | 1.01 | 1.03 |  |
| A549 |  |  |  |  |  |  |  |  | 0.527 | 0.645 | 0.608 | 0.401 | 0.967 | 0.977 | 1.07 | 1.1 | 0.914 |  |
| NCI-H522 | 0.641 | 0.683 | 0.65 | 0.578 | 0.614 | 0.865 | 0.968 | 0.918 |  |  |  |  |  |  |  |  |  | 0.897 |
| IA-LM |  |  |  |  |  |  |  |  | 0.428 | 0.386 | 0.572 | 0.442 | 0.703 |  | 0.944 | 0.809 | 0.52 |  |
| NCI-H1703 |  |  |  |  |  |  |  |  | 0.278 | 0.228 | 0.223 | 0.205 | 1.09 | 0.629 | 0.41 | 0.354 | 0.286 |  |
| LCLC-103H | 0.43 | 0.382 | 0.453 | 0.419 | 0.314 | 0.472 | 0.495 | 0.459 | 0.543 | 0.592 | 0.636 | 0.572 |  |  |  |  |  | 0.451 |
| SW 900 | 0.465 | 0.575 | 0.623 | 0.577 | 0.539 | 0.731 | 0.596 | 0.543 |  |  |  |  |  |  |  |  |  | 0.66 |
